Patent publication EP2135864A1, “5-(4-methanesulfonyl-phenyl)-thiazole derivatives for the treatment of acute and chronic inflammatory diseases” (FAES FARMA, S.A., priority 2008, dated 2009)

Legend:
Assay type in all cases: cell-based, human
[1] = tested on: IL-8; experiment: IL-8 production by PBMC from patients with rheumatoid arthritis, CBA; settings: 24 hours, mean ± standard error, n=8
Procedure: (§1) CBA protocol was followed according to the manufacturer's instructions. The election of microparticles was performed following the summary of Figure 1.
(§2) The acquisition on samples was performed with the BD FACS Array Bioanalyser System (FACSArray, Becton Dickinson, San José, CA, USA) and the analysis of the results was completed with the software FCAP Array (Becton Dickinson) in a PC computer.
(§3) Briefly, the experimental protocol consisted of a plate pre-washing out with Wash Buffer. After decantation, the mixture of capture microparticles was re-suspended in the vortex. Standards and samples were added in the adequate dilution. After permanent stirring incubation during 1 h, the PE detection reagent was added and incubated again during 2h at room temperature. After a washing-out, the acquisition was performed in the flow cytometer. Table 3. -Kit CBA Human Soluble Protein Multiplex Flex Set System.
The effect on IL-8 production by PBMC from patients with rheumatoid arthritis was also studied. PBMC (5 x 10^4 cells per well) from 8 patients with rheumatoid arthritis were cultured in duplicate in 200 µl of complete medium supplemented with the highest solvent concentration (10^-6 M), and 10^-6 M, 10^-7 M and 10^-8 M of compound 12, in the presence and in the absence of either LPS (10 µg/ml) or anti-CD3 (12.5 ng/ml) + anti-CD28 (1/3x10^5), during 24 hours. Culture supernatants were frozen at -20°C and IL-8 concentration was quantified by BD FACS Array Bioanalyser by using CBA Flex Set, specific to determine IL-8 concentration, following the manufacturer instructions.

[2] = tested on: IL-10; experiment: IL-10 production by PBMC from patients with rheumatoid arthritis, CBA; settings: 24 hours, mean ± standard error, n=8
Procedure: as §1, §2, §3
On the other hand, PBMC (5 x 10^4 cells per well) from 8 patients with rheumatoid arthritis were cultured in duplicate in 200 µl of complete medium supplemented with the highest solvent concentration (10^-6 M), and 10^-6 M, 10^-7 M and 10^-8 M of compound 12 in the presence and absence of either LPS (10 µg/ml) or anti-CD3 (12.5 ng/ml), + anti-CD28 (1/3x10^5), during 24 hours. Culture supernatants were frozen at -20°C and IL-10 concentration was assayed by BD FACS Array Bioanalyser by using CBA Flex Set, specific to determine IL-10 concentration, following the manufacturer instructions.

[3] = tested on: PBMC from healthy volunteers; experiment: Proliferative response of PBMC, 3[H]-Thymidine incorporation; settings: n=8; 4 days culture; absence or presence of PHA 10 µg/ml, PHA 2 µg/ml plus IL-2 (25 IU/ml), or anti-CD3 (12.5 ng/ml) + anti-CD28 (1:320.000)
Procedure: Faced against a mitogen stimulation, lymphocytes suffer a blastogenesis and cellular differentiation process. The method used to quantify the cellular proliferation was the assay of the incorporation of ^3[H]-Thymidine to the DNA de novo synthesized, and the emission of betha-radiation from the cellular cultures dried extracts (to which the tritiated base was added) was detected before its ending and harvesting. In the different experiments performed to study the proliferation, the purified cellular preparations were incubated in 96 microwells plain bottom plates at concentrations of 5 x 10^4 cells/well (200 µl final volume), in the presence of different concentrations of various mitogens with triplicate repetitions and along 4 days of culture.
The response to a specific stimuli depended on the density and cell type studied, as well as of the culture time and of the mitogenic agent concentration. […]
PBMC was cultured during 4 days (50.000 cells per well) at 37°C and 5 % CO2 atmosphere (Cell incubator HERA Cell 150, Thermoscientific, Thermoelectron, 63505 Lagenselbold, GE) in complete culture medium. […] The DNA-incorporated radioactive was quantified by using a betha particles counter Wallac Oy.

[4] = tested on: CD62L; experiment: Shedding of CD62L in monocytes of PBMC, flow cytometry; settings: monocytes of PBMC from healthy volunteers, mean ± standard error, n=10, vehicle 65.34±8.06

## Cc1nc(OC2CCCC2)c(-c2ccc(S(C)(=O)=O)cc2)s1 [compound 12, 4-cyclopentyloxy-5-(4-methylsulfonyl-phenyl)-2-methylthiazole]
[1]; LPS (10µg/ml), 10^-6 M, vehicle 150759.65±22966.06, p 0.012
  IL-8 production in PMBC from patients with rheumatoid arthritis: 185536.78±22000.00 (0.012) pg/mL
[1]; LPS (10µg/ml), 10^-7 M, vehicle 150759.65±22966.06, p 0.208
  IL-8 production in PMBC from patients with rheumatoid arthritis: 174156.23±13385.66 (0.208) pg/mL
[1]; LPS (10µg/ml), 10^-8 M, vehicle 150759.65±22966.06, p 0.012
  IL-8 production in PMBC from patients with rheumatoid arthritis: 184541.37±21500.00 (0.012) pg/mL
[1]; anti-CD3 (12.5 ng/ml) + anti-CD28 (1/3x10^5), 10^-6 M, vehicle 118017.97±21116.00, p 0.263
  IL-8 production in PMBC from patients with rheumatoid arthritis: 124576.09±14605.02 (0.263) pg/mL
[1]; anti-CD3 (12.5 ng/ml) + anti-CD28 (1/3x10^5), 10^-7 M, vehicle 118017.97±21116.00, p 0.889
  IL-8 production in PMBC from patients with rheumatoid arthritis: 109607.00±18310.15 (0.889) pg/mL
[1]; anti-CD3 (12.5 ng/ml) + anti-CD28 (1/3x10^5), 10^-8 M, vehicle 118017.97±21116.00, p 0.575
  IL-8 production in PMBC from patients with rheumatoid arthritis: 121587.88±16117.25 (0.575) pg/mL
[1]; medium, 10^-6 M, vehicle 57877.64±11143.52, p 0.208
  IL-8 production in PMBC from patients with rheumatoid arthritis: 98012.08±8395.97 (0.208) pg/mL
[1]; medium, 10^-7 M, vehicle 57877.64±11143.52, p 0.161
  IL-8 production in PMBC from patients with rheumatoid arthritis: 96498.50±10784.62 (0.161) pg/mL
[1]; medium, 10^-8 M, vehicle 57877.64±11143.52, p 0.123
  IL-8 production in PMBC from patients with rheumatoid arthritis: 93977.67±9247.38 (0.123) pg/mL
[2]; LPS (10µg/ml), 10^-6 M, vehicle 2388.64±300.00, p 0.069
  IL-10 production in PMBC from patients with rheumatoid arthritis: 2787.12±416.91 (0.069) pg/mL
[2]; LPS (10µg/ml), 10^-7 M, vehicle 2388.64±300.00, p 0.327
  IL-10 production in PMBC from patients with rheumatoid arthritis: 2597.85±513.19 (0.327) pg/mL
[2]; LPS (10µg/ml), 10^-8 M, vehicle 2388.64±300.00, p 0.025
  IL-10 production in PMBC from patients with rheumatoid arthritis: 3000.00±400.00 (0.025) pg/mL
[2]; anti-CD3 (12.5 ng/ml) + anti-CD28 (1/3x10^5), 10^-6 M, vehicle 836.39±189.09, p 0.484
  IL-10 production in PMBC from patients with rheumatoid arthritis: 976.96±187.99 (0.484) pg/mL
[2]; anti-CD3 (12.5 ng/ml) + anti-CD28 (1/3x10^5), 10^-7 M, vehicle 836.39±189.09, p 1.000
  IL-10 production in PMBC from patients with rheumatoid arthritis: 805.41±141.23 (1.000) pg/mL
[2]; anti-CD3 (12.5 ng/ml) + anti-CD28 (1/3x10^5), 10^-8 M, vehicle 836.39±189.09, p 0.674
  IL-10 production in PMBC from patients with rheumatoid arthritis: 872.06±150.87 (0.674) pg/mL
[2]; medium, 10^-6 M, vehicle 452.69±107.47, p 0.674
  IL-10 production in PMBC from patients with rheumatoid arthritis: 682.50±113.65 (0.674) pg/mL
[2]; medium, 10^-7 M, vehicle 452.69±107.47, p 0.401
  IL-10 production in PMBC from patients with rheumatoid arthritis: 798.92±144.46 (0.401) pg/mL
[2]; medium, 10^-8 M, vehicle 452.69±107.47, p 0.263
  IL-10 production in PMBC from patients with rheumatoid arthritis: 468.14±65.80 (0.263) pg/mL
[3]
  proliferative response of the PBMC from healthy volunteers: did not significantly modify
[4]; 10^-6 M, p 0.721
  Mean fluorescence intensity of surface CD62L expression in monocytes (MFI): 63.90±8.52 (0.721)
[4]; 10^-7 M, p 0.878
  Mean fluorescence intensity of surface CD62L expression in monocytes (MFI): 72.30±10.21 (0.878)
